Assay results: US12298297B2, “Visual cell sorting” (University of Washington, priority 2020, dated 2025)

Legend:
hTERT RPE-1 = assay: Nuclear shape factor imaging of paclitaxel-treated cells (nuclear lobulation); type: cell-based, human; details: 0.25 nM paclitaxel, 24 hours, RPE-1 NLS-Dendra2×3 cells
Procedure: FIGS. 4A-4F. Visual Cell Sorting to dissect heterogeneous nuclear morphology following paclitaxel treatment. (4A) RPE-1 NLS-Dendra2×3 cells were treated for 24 hours with 0.25 nM paclitaxel or DMSO and imaged. The shape factor, which measures the degree of an object's circularity, was computed for each nucleus. One normal nucleus with a shape factor near one and one lobulated nucleus with a low shape factor are shown. The computationally determined boundaries of each nucleus are shown in blue; scale bar=10 (4B) Shape factor density plots for vehicle (DMSO) and 0.25 nM paclitaxel-treated RPE-1 cells (n≥3,914 cells per treatment). Dashed line, cutoff for lobulated nuclei (shape factor <0.65). […]
To test whether Visual Cell Sorting enables transcriptomics on cells with distinct image-based phenotypes, single cell RNA sequencing was performed on cells undergoing divergent morphologic responses to paclitaxel. […] Paclitaxel treated cells were then analyzed it was observed that 30% of paclitaxel treated cells had lobulated nuclei, defined by shape factor of less than 0.65 (FIG. 4B).
RPE-1 NLS-Dendra2×3/H2B-miRFP/NES-mBeRFP Clone 3 cells were plated at 50,000 cells per well in a 6-well plate. […] After 30 hours of treatment, cells were placed on the microscope and imaged, analyzed, and activated across 2,204 sites (˜75% coverage, avoided well edges) in 2 wells. […]

U-2 OS H3-Dendra2 cells = assay: Nucleus-to-cytoplasm (N:C) miRFP ratio of individually expressed NLS variants fused to CMPK-miRFP reporter; type: cell-based, human
Procedure: FIGS. 3A-3D. Visual Cell Sorting-derived variant scores accurately predict NLS function. (3A) Nine NLS variants were individually expressed in the CMPK-miRFP reporter in U-2 OS H3-Dendra2 cells. The median nucleus to cytoplasm (N:C) ratio of cells expressing each variant was measured by microscope and compared to its localization score derived by Visual Cell Sorting. n≥141 cells per variant per replicate. Bars, mean across at least three separate replicates. (3B) SV40 NLS variants that appeared to enhance nuclear localization were individually tested both alone and in combination. NLS variants with up to three amino acid changes were expressed in U-2 OS H3-Dendra2 cells and imaged; the median N:C ratio was quantified across cells in the same well. n≥527 cells per variant per replicate. […]
A library was based on the SV40 NLS, a 7-residue sequence containing a lysine and arginine-rich region (K/R motif) that was the first NLS to be discovered. […] The degree of nuclear localization was calculated using a nucleus-to-cytoplasm miRFP intensity ratio (N:C ratio; FIG. 9A). […]
Analysis of Metamorph-calculated nucleus and cytoplasm mean intensity values was done using Python (v3.6.5). […] Cells with no miRFP expression were removed with a gate that was determined by examination of the histogram of the mean miRFP intensity values for cells in each well. […]

Compound	cells with lobulated nuclei, defined by shape factor of less than 0.65 (hTERT RPE-1) [%]	increase in nuclear localization compared to the wild-type SV40 NLS (median N:C ratio) (U-2 OS H3-Dendra2 cells) [fold]
CC(=O)O[C@H]1C(=O)[C@@]2(C)[C@H]([C@H](OC(=O)c3ccccc3)[C@]3(O)C[C@H](OC(=O)[C@H](O)[C@@H](NC(=O)c4ccccc4)c4ccccc4)C(C)=C1C3(C)C)[C@]1(OC(C)=O)CO[C@@H]1C[C@@H]2O [paclitaxel]	30	–
EPPRKKRKIGI [superNLS, optimized SV40 NLS with three missense variants, fused to the CMPK-miRFP reporter]	–	2.3
